Measured values published in patent EP0431659B1, “Pharmaceutical compositions of tebufelone” (THE PROCTER & GAMBLE COMPANY, priority 1989, dated 1991).

Columns and labels:
[1] = absorption from the gastrointestinal tract after peroral dosing; format: in vivo; conditions: dosed in conventional solid dosage forms, such as tablets or powders in capsules
[2] = water solubility of tebufelone; format: physicochemical; conditions: water (essentially water-insoluble)

absorption of tebufelone from the gastrointestinal tract [1]: quite low | solubility [2]: < 1 µg/mL
SMILES: C#CCCCC(=O)c1cc(C(C)(C)C)c(O)c(C(C)(C)C)c1 [tebufelone, 1-[3,5-bis(1,1-dimethylethyl)-4-hydroxyphenyl]-5-hexyn-1-one]
